Test results from ChEMBL document CHEMBL3351958, “Structure-activity relationships of sugar-based peptidomimetics as modulators of amyloid β-peptide early oligomerization and fibrillization” (Eur J Med Chem, 2014).
Active and inactive are the calls of the source. No cut-off for these calls is given here. Numbered stars: 1 amine (or outer) side, 2 acyl side, 3 side chain; on linkers, the order of the positions; unused ones are H or OH. Square brackets hold non-standard residues; d marks the D form. Peptide text beside a SMILES is read from it. * marks the point of attachment. X1 = O=C(CCOC[C@H]1O[C@@H](OCCCN[*:1])[C@H](O)[C@@H](O)[C@@H]1O)[*:2]; X2 = O=C(CCOC[C@H]1O[C@@H](OCCN[*:1])[C@H](O)[C@@H](O)[C@@H]1O)[*:2]; X4 = O=C(CCOC[C@H]1O[C@H](OCCCN[*:1])[C@H](O)[C@@H](O)[C@@H]1O)[*:2]; X3 = O=C(CCOC[C@H]1O[C@H](OCCN[*:1])[C@H](O)[C@@H](O)[C@@H]1O)[*:2]; Boc = CC(C)(C)OC(=O)*

Columns and labels:
[1] = biological target: Amyloid-beta precursor protein (Homo sapiens) (UniProt P05067); test: Inhibition of amyloid beta (1 to 42) (unknown origin) oligomerization assessed as fold change in half-life of aggregation extension/reduction at 1:10 Abeta:compound ratio by thioflavin T assay based fluorescence microscopy
Chain of Amyloid-beta precursor protein (Homo sapiens) (P05067 whole entry): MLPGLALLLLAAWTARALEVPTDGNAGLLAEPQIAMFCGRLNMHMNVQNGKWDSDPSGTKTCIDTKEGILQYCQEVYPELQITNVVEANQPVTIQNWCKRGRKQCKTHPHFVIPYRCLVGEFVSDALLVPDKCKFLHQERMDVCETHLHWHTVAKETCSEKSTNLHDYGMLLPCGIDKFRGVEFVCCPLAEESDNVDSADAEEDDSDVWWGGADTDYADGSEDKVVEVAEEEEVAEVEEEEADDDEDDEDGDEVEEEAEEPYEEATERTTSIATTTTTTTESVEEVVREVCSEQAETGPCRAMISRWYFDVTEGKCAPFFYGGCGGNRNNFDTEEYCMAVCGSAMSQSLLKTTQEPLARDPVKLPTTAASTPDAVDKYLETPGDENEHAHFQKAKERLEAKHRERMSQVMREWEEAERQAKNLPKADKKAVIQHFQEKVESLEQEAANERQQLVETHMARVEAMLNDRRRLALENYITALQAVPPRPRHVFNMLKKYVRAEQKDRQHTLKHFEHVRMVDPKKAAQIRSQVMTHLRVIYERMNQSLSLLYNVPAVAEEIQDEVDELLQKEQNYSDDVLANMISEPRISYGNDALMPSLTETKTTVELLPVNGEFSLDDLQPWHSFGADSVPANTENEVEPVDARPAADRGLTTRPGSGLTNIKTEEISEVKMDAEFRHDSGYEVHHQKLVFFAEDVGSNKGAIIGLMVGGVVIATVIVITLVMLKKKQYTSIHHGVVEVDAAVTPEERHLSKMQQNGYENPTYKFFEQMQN

[2] = biological target: Amyloid-beta precursor protein (Homo sapiens) (UniProt P05067); test: Inhibition of amyloid beta (1 to 42) (unknown origin) oligomerization assessed as reduction in intensity of experimental fluorescence plateau at 1:10 Abeta:compound ratio by thioflavin T assay based fluorescence microscopy; parameters: scale not given: the % may be the effect or the level left
[3] = biological target: Amyloid-beta precursor protein (Homo sapiens) (UniProt P05067); test: Inhibition of amyloid beta (1 to 42) (unknown origin) oligomerization assessed as fold change in half-life of aggregation extension/reduction at 1:1 Abeta:compound ratio by thioflavin T assay based fluorescence microscopy
[4] = biological target: Amyloid-beta precursor protein (Homo sapiens) (UniProt P05067); test: Inhibition of amyloid beta (1 to 42) (unknown origin) oligomerization assessed as reduction in intensity of experimental fluorescence plateau at 1:1 Abeta:compound ratio by thioflavin T assay based fluorescence microscopy
[5] = biological target: Amyloid-beta precursor protein (Homo sapiens) (UniProt P05067); test: Inhibition of amyloid beta (1 to 42) (unknown origin) oligomerization assessed as increase in intensity of experimental fluorescence plateau at 1:10 Abeta:compound ratio by thioflavin T assay based fluorescence microscopy; parameters: scale not given: the % may be the effect or the level left
[6] = biological target: Amyloid-beta precursor protein (Homo sapiens) (UniProt P05067); test: Inhibition of amyloid beta (1 to 42) (unknown origin) fibril formation at 100 uM after 4 to 24 hrs by transmission electron microscopy
[7] = biological target: Amyloid-beta precursor protein (Homo sapiens) (UniProt P05067); test: Inhibition of amyloid beta (1 to 42) (unknown origin) oligomer formation at 1:1 Abeta:compound ratio after 4 to 6 hrs by capillary electrophoresis
[8] = biological target: Amyloid-beta precursor protein (Homo sapiens) (UniProt P05067); test: Inhibition of amyloid beta (1 to 42) (unknown origin) oligomer formation at 1:2 Abeta:compound ratio after 4 to 6 hrs by capillary electrophoresis
[9] = biological target: Amyloid-beta precursor protein (Homo sapiens) (UniProt P05067); test: Inhibition of amyloid beta (1 to 42) (unknown origin) oligomer formation at 1:10 Abeta:compound ratio after 4 to 6 hrs by capillary electrophoresis
[10] = biological target: Amyloid-beta precursor protein (Homo sapiens) (UniProt P05067); test: Inhibition of amyloid beta (1 to 42) (unknown origin) oligomerization assessed as fold change in half-life of aggregation extension/reduction at 1:5 Abeta:compound ratio by thioflavin T assay based fluorescence microscopy
[11] = biological target: Amyloid-beta precursor protein (Homo sapiens) (UniProt P05067); test: Inhibition of amyloid beta (1 to 42) (unknown origin) oligomerization assessed as reduction in intensity of experimental fluorescence plateau at 1:5 Abeta:compound ratio by thioflavin T assay based fluorescence microscopy; parameters: scale not given: the % may be the effect or the level left
[12] = biological target: Amyloid-beta precursor protein (Homo sapiens) (UniProt P05067); test: Inhibition of amyloid beta (1 to 42) (unknown origin) oligomer formation at 100 uM after 4 to 6 hrs by capillary electrophoresis
[13] = biological target: Amyloid-beta precursor protein (Homo sapiens) (UniProt P05067); test: Inhibition of amyloid beta (1 to 42) (unknown origin) oligomer formation assessed as monomer stabilization at 100 uM after 4 to 6 hrs by capillary electrophoresis

SMILES	fold change (FC) [1]	Activity [2]	fold change in aggregation half-life [3]	inhibition [4]	Activity [5]	inhibition [6]	inhibition [7]	inhibition [8]	inhibition [9]	fold change (FC) [10]	Activity [11]	inhibition [12]	inhibition [13]
COC(=O)[C@H](CC(C)C)NC(=O)[C@@H](NC(=O)CCOC[C@H]1OC(O)[C@H](O)[C@@H](O)[C@@H]1O)C(C)C (stereo partly drawn)	inactive	inactive	inactive	inactive	–	–	–	–	–	–	–	–	–
COC(=O)[C@H](CC(C)C)NC(=O)[C@@H](NC(=O)CCOC[C@H]1OC(O)[C@H](OCc2ccccc2)[C@@H](OCc2ccccc2)[C@@H]1OCc1ccccc1)C(C)C (stereo partly drawn)	0.8	–	inactive	inactive	14%	–	–	–	–	–	–	–	–
COC(=O)[C@H](CC(C)C)NC(=O)[C@@H](NC(=O)CCOC[C@H]1O[C@@H](OCCCNC(=O)[C@@H](NC(=O)[C@H](C)NC(=O)OC(C)(C)C)C(C)C)[C@H](OC(C)=O)[C@@H](OC(C)=O)[C@@H]1OC(C)=O)C(C)C	inactive	inactive	inactive	inactive	–	–	–	–	–	–	–	–	–
COC(=O)[C@H](CC(C)C)NC(=O)[C@@H](NC(=O)CCOC[C@H]1O[C@@H](OCCCNC(=O)[C@@H](NC(=O)[C@H](C)NC(=O)OC(C)(C)C)C(C)C)[C@H](OCc2ccccc2)[C@@H](OCc2ccccc2)[C@@H]1OCc1ccccc1)C(C)C	0.7	–	inactive	inactive	27%	Active	inactive	Active	–	–	–	–	–
COC(=O)[C@H](CC(C)C)NC(=O)[C@@H](NC(=O)CCOC[C@H]1O[C@@H](OCCNC(=O)[C@@H](NC(=O)[C@H](C)NC(=O)OC(C)(C)C)C(C)C)[C@H](OCc2ccccc2)[C@@H](OCc2ccccc2)[C@@H]1OCc1ccccc1)C(C)C	0.8	–	inactive	inactive	38%	–	–	–	–	–	–	–	–
COC(=O)[C@H](CC(C)C)NC(=O)[C@@H](NC(=O)CCOC[C@H]1O[C@H](OCCNC(=O)[C@@H](NC(=O)[C@H](C)NC(=O)OC(C)(C)C)C(C)C)[C@H](OC(C)=O)[C@@H](OC(C)=O)[C@@H]1OC(C)=O)C(C)C	inactive	inactive	inactive	inactive	–	–	–	–	–	–	–	–	–
OC[C@H]1OC(O)[C@H](O)[C@@H](O)[C@@H]1O (stereo partly drawn)	inactive	inactive	inactive	inactive	–	–	–	–	–	–	–	–	–
COC(=O)[C@H](CC(C)C)NC(=O)[C@@H](NC(=O)OC(C)(C)C)C(C)C (Boc-Val-Leu-OMe)	inactive	inactive	inactive	inactive	–	–	–	–	–	–	–	–	–
COC(=O)[C@H](CC(C)C)NC(=O)[C@@H](N)C(C)C (H-Val-Leu-OMe)	inactive	inactive	inactive	inactive	–	–	–	–	–	–	–	–	–

Second part, the molecule after the results:

fold change (FC) [1]	Activity [2]	fold change in aggregation half-life [3]	inhibition [4]	Activity [5]	inhibition [6]	inhibition [7]	inhibition [8]	inhibition [9]	fold change (FC) [10]	Activity [11]	inhibition [12]	inhibition [13]	SMILES
1.9	37%	inactive	inactive	–	inactive	inactive	–	inactive	–	–	–	–	COC(=O)[C@H](CC(C)C)NC(=O)[C@@H](NC(=O)CCOC[C@H]1O[C@@H](OCCCNC(=O)[C@@H](NC(=O)[C@H](C)NC(=O)OC(C)(C)C)C(C)C)[C@H](O)[C@@H](O)[C@@H]1O)C(C)C (Boc-AV[X1]VL-OMe)
1.8	29%	inactive	inactive	–	–	–	–	–	–	–	–	–	COC(=O)[C@H](CC(C)C)NC(=O)[C@@H](NC(=O)CCOC[C@H]1O[C@@H](OCCNC(=O)[C@@H](NC(=O)[C@H](C)NC(=O)OC(C)(C)C)C(C)C)[C@H](O)[C@@H](O)[C@@H]1O)C(C)C (Boc-AV[X2]VL-OMe)
inactive	inactive	inactive	inactive	–	–	–	–	–	–	–	–	–	COC(=O)[C@H](CC(C)C)NC(=O)[C@@H](NC(=O)CCOC[C@H]1O[C@H](OCCNC(=O)[C@@H](NC(=O)[C@H](C)NC(=O)OC(C)(C)C)C(C)C)[C@H](O)[C@@H](O)[C@@H]1O)C(C)C (Boc-AV[X3]VL-OMe)
inactive	inactive	inactive	inactive	–	–	–	–	–	–	–	–	–	COC(=O)[C@H](CC(C)C)NC(=O)[C@@H](NC(=O)CCOC[C@H]1O[C@H](OCCCNC(=O)[C@@H](NC(=O)[C@H](C)NC(=O)OC(C)(C)C)C(C)C)[C@H](O)[C@@H](O)[C@@H]1O)C(C)C (Boc-AV[X4]VL-OMe)
2.8	56%	inactive	inactive	–	Active	Active	–	Active	2.1	40%	Active	Active	COC(=O)[C@H](CC(C)C)NC(=O)[C@@H](NC(=O)CCOC[C@H]1O[C@@H](OCCCNC(=O)[C@@H](NC(=O)[C@H](C)N)C(C)C)[C@H](O)[C@@H](O)[C@@H]1O)C(C)C (H-AV[X1]VL-OMe)
inactive	inactive	inactive	inactive	–	–	–	–	–	–	–	–	–	COC(=O)[C@H](CC(C)C)NC(=O)[C@@H](NC(=O)CCOC[C@H]1O[C@@H](OCCNC(=O)[C@@H](NC(=O)[C@H](C)N)C(C)C)[C@H](O)[C@@H](O)[C@@H]1O)C(C)C (H-AV[X2]VL-OMe)
